This passage reports IC50 results from patent US12209102B2, “Heterocyclic compounds and uses thereof” (Kumquat Biosciences Inc., priority 2022, dated 2025).

One assay concerns A549 cells. As to the kind of experiment: Ras cellular assay, growth of cells with K-Ras G12S mutation (CellTiter-Glo). Particulars: Homo sapiens, cell growth, Example 9, G12S mutation, read-out: IC50 against A549 cells. The format is cell-based. In outline:
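Growth inhibition IC50 values come from four-parameter fits of CellTiter-Glo luminescence, read about 6 days after compound addition. G12S-mutant A549 cells (e.g. 800/well, RPMI-1640 + 10% heat-inactivated FBS) were plated in tissue-culture-treated or ultra-low-attachment 384-well format. Dosing began the following day with serial dilutions, e.g. 10 points, 3-fold.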

For another assay, the system named is SW620 cells. As to the kind of experiment: Ras cellular assay, growth of cells with K-Ras G12V mutation (CellTiter-Glo). The class given is cell-based. The note with it: Homo sapiens, SW-620; cell growth, Example 9, G12V mutation; read-out: IC50 against SW620 cells. In outline:
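IC50 values came from a four-parameter fit of CellTiter-Glo viability, read roughly 6 days after dosing with e.g. a 10-point threefold dilution series. G12V-mutant SW620 cells (e.g. 800 per well) had been plated the previous day in RPMI-1640/10% heat-inactivated FBS, on tissue culture-treated or ultra-low attachment plates.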

The next assay deals with T1, K-Ras WT (Homo sapiens, UniProt P01116).
T1 construct: made in house; host or cells: E. coli BL21 (DE3)
As to the kind of experiment: HTRF resonance energy transfer assay, K-Ras WT / SOS1 interaction. The class given is biochemical. The note with it: HTRF assay of Example 5; read-out: IC50 against K-Ras WT. In outline:
(§1)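 Buffer about 5 mM HEPES pH 7.4 with ~150 mM NaCl, ~1 mM DTT, 0.05% BSA, 0.0025% (v/v) Igepal. Protein constructs used at molarity matching the IC50 range studied (e.g. ~500 nM). FRET between tagged K-Ras and hSOS1 measured after short incubation.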

Another assay concerns the target T2, K-Ras G12D (Homo sapiens, UniProt P01116, G12D).
T2 construct: made in house; host or cells: E. coli BL21 (DE3)
As to the kind of experiment: HTRF resonance energy transfer assay, K-Ras G12D / SOS1 interaction. The class given is biochemical. The note with it: HTRF assay of Example 5; read-out: IC50 against K-Ras G12D. In outline:
as §1

The target in a further assay is T3, K-Ras G12V (Homo sapiens, UniProt P01116, G12V).
T3 construct: made in house; host or cells: E. coli BL21 (DE3)
Kind of assay: HTRF resonance energy transfer assay, K-Ras G12V / SOS1 interaction. The format is biochemical. Particulars: HTRF assay of Example 5; read-out: IC50 against K-Ras G12V. In outline: as §1

Another assay concerns the target T4, K-Ras G12S (Homo sapiens, UniProt P01116, G12S).
T4 construct: made in house; host or cells: E. coli BL21 (DE3)
Kind of assay: HTRF resonance energy transfer assay, K-Ras G12S / SOS1 interaction. The class given is biochemical. Particulars: HTRF assay of Example 5; read-out: IC50 against K-Ras G12S. In outline: as §1

A further assay deals with GP2D cells. As to the kind of experiment: Ras cellular assay, growth of cells with K-Ras G12D mutation (CellTiter-Glo). The format is cell-based. The note with it: cell growth, Example 9, G12D mutation, read-out: IC50 against GP2D cells.

T1 sequence (P01116 1-188 isoform P01116-2): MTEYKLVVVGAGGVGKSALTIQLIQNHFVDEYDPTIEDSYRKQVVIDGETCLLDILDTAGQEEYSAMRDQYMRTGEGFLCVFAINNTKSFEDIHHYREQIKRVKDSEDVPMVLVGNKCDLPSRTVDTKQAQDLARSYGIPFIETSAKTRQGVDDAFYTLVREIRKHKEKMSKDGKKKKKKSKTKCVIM
T3 sequence (P01116 1-188 isoform P01116-2 G12V): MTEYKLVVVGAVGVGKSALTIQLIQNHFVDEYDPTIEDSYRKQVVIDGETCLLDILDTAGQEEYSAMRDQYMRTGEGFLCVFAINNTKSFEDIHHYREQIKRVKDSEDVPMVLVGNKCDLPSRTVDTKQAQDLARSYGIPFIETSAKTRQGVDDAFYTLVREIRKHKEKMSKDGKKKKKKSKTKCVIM
T2 sequence (P01116 1-188 isoform P01116-2 G12D): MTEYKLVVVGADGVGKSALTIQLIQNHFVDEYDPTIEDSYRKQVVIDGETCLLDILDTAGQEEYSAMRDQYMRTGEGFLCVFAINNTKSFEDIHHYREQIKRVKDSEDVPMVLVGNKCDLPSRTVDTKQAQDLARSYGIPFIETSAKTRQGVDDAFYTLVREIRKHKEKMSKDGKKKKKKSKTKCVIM
T4 sequence (P01116 1-188 isoform P01116-2 G12S): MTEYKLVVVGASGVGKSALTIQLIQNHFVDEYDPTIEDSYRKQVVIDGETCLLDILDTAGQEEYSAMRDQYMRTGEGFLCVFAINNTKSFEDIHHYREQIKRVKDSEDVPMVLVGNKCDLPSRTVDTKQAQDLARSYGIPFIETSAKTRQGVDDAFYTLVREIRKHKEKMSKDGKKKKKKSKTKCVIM

Consider `N#Cc1c(N)sc2c(F)ccc(-c3c(Cl)c4c5c(nc(OC[C@@]67CCCN6C[C@H](F)C7)nc5c3F)N(C3CCN(C(=O)[C@H]5CCOC5)C3)CCO4)c12` (stereo partly drawn) [Compound 736, 2-amino-4-(8-chloro-10-fluoro-2-(((2R,7aS)-2-fluorotetrahydro-1H-pyrrolizin-7a(5H)-yl)methoxy)-4-(1-((S)-tetrahydrofuran-3-carbonyl)pyrrolidin-3-yl)-5,6-dihydro-4H-[1,4]oxazepino[5,6,7-de]quinazolin-9-yl)-7-fluorobenzo[b]thiophene-3-carbonitrile], for which the IC50 is less than 5000 nM in the assay with A549 cells; less than 5000 nM in the assay with SW620 cells; less than 100 nM on K-Ras WT; less than 100 nM on K-Ras G12D; less than 100 nM on K-Ras G12V; less than 100 nM at K-Ras G12S. The half-inhibitory concentration (IC50) in the assay with GP2D cells is less than 500 nM.
In the case of `COC1(C)CC(N2CCOc3c(Cl)c(-c4ccc(F)c5sc(N)c(C#N)c45)c(F)c4nc(OC[C@@]56CCCN5C[C@H](F)C6)nc2c34)C1` (stereo partly drawn) [Compound 737, 2-amino-4-(8-chloro-10-fluoro-2-(((2R,7aS)-2-fluorotetrahydro-1H-pyrrolizin-7a(5H)-yl)methoxy)-4-(3-methoxy-3-methylcyclobutyl)-5,6-dihydro-4H-[1,4]oxazepino[5,6,7-de]quinazolin-9-yl)-7-fluorobenzo[b]thiophene-3-carbonitrile], the IC50 was less than 5000 nM with A549 cells; less than 5000 nM in the assay with SW620 cells; less than 100 nM on K-Ras WT; less than 100 nM at K-Ras G12D; less than 100 nM at K-Ras G12V; less than 100 nM at K-Ras G12S. Moreover, the half-maximal inhibitory concentration (IC50) in the assay on GP2D cells was less than 500 nM.
Turning to `N#Cc1c(N)sc2c(F)ccc(-c3c(Cl)c4c5c(nc(OC[C@@]67CCCN6C[C@H](F)C7)nc5c3F)N(C3CCC(OC(F)F)C3)CCO4)c12` (stereo partly drawn) [Compound 740, 2-amino-4-(8-chloro-4-(3-(difluoromethoxy)cyclopentyl)-10-fluoro-2-(((2R,7aS)-2-fluorotetrahydro-1H-pyrrolizin-7a(5H)-yl)methoxy)-5,6-dihydro-4H-[1,4]oxazepino[5,6,7-de]quinazolin-9-yl)-7-fluorobenzo[b]thiophene-3-carbonitrile], the IC50 was less than 5000 nM with A549 cells; less than 5000 nM with SW620 cells; less than 100 nM on K-Ras WT; less than 100 nM at K-Ras G12D; less than 100 nM at K-Ras G12V; less than 100 nM on K-Ras G12S. Also, the IC50 in the assay on GP2D cells is less than 500 nM.
For the compound `CO[C@@H](C)C(=O)N1CCC(N2CCOc3c(Cl)c(-c4ccc(F)c5sc(N)c(C#N)c45)c(F)c4nc(OC[C@@]56CCCN5C[C@H](F)C6)nc2c34)C1` (stereo partly drawn) [Compound 742, 2-amino-4-(8-chloro-10-fluoro-2-(((2R,7aS)-2-fluorotetrahydro-1H-pyrrolizin-7a(5H)-yl)methoxy)-4-(1-((S)-2-methoxypropanoyl)pyrrolidin-3-yl)-5,6-dihydro-4H-[1,4]oxazepino[5,6,7-de]quinazolin-9-yl)-7-fluorobenzo[b]thiophene-3-carbonitrile], the half-inhibitory concentration (IC50) with A549 cells is less than 5000 nM; in the assay with SW620 cells it was less than 5000 nM; on K-Ras WT, less than 100 nM; at K-Ras G12D it was less than 100 nM; on K-Ras G12V it was less than 100 nM; at K-Ras G12S it was less than 100 nM. Besides, the concentration for half-maximal inhibition (IC50) in the assay on GP2D cells is less than 500 nM.
With `CC(C)(O)C1COc2c(Cl)c(-c3ccc(F)c4sc(N)c(C#N)c34)c(F)c3nc(OC[C@@]45CCCN4C[C@H](F)C5)nc(c23)N1CC(F)F` (stereo partly drawn) [Compound 755, 2-amino-4-(8-chloro-4-(2,2-difluoroethyl)-10-fluoro-2-(((2R,7aS)-2-fluorotetrahydro-1H-pyrrolizin-7a(5H)-yl)methoxy)-5-(2-hydroxypropan-2-yl)-5,6-dihydro-4H-[1,4]oxazepino[5,6,7-de]quinazolin-9-yl)-7-fluorobenzo[b]thiophene-3-carbonitrile], the half-inhibitory concentration (IC50) was less than 5000 nM with A549 cells; less than 5000 nM with SW620 cells; less than 100 nM on K-Ras WT; less than 100 nM at K-Ras G12D; less than 100 nM on K-Ras G12V; less than 100 nM on K-Ras G12S. For the same compound, the half-inhibitory concentration (IC50) with GP2D cells is less than 500 nM.
On to `N#Cc1c(N)sc2c(F)ccc(-c3c(Cl)c4c5c(nc(OC[C@@]67CCCN6C[C@H](F)C7)nc5c3F)N(C3CCN(C(=O)C5COC5)C3)CCO4)c12` (stereo partly drawn) [Compound 757, 2-amino-4-(8-chloro-10-fluoro-2-(((2R,7aS)-2-fluorotetrahydro-1H-pyrrolizin-7a(5H)-yl)methoxy)-4-(1-(oxetane-3-carbonyl)pyrrolidin-3-yl)-5,6-dihydro-4H-[1,4]oxazepino[5,6,7-de]quinazolin-9-yl)-7-fluorobenzo[b]thiophene-3-carbonitrile], for which the IC50 was less than 5000 nM in the assay on A549 cells; less than 5000 nM in the assay with SW620 cells; less than 100 nM at K-Ras WT; less than 100 nM at K-Ras G12D; less than 100 nM on K-Ras G12V; less than 100 nM on K-Ras G12S. The half-maximal inhibitory concentration (IC50) in the assay on GP2D cells is less than 500 nM.
Consider `Cn1cc(N2CCOc3c(Cl)c(-c4ccc(F)c5sc(N)c(C#N)c45)c(F)c4nc(OC[C@@]56CCCN5C[C@H](F)C6)nc2c34)cn1` [Compound 765, 2-amino-4-(8-chloro-10-fluoro-2-(((2R,7aS)-2-fluorotetrahydro-1H-pyrrolizin-7a(5H)-yl)methoxy)-4-(1-methyl-1H-pyrazol-4-yl)-5,6-dihydro-4H-[1,4]oxazepino[5,6,7-de]quinazolin-9-yl)-7-fluorobenzo[b]thiophene-3-carbonitrile], for which the concentration for half-maximal inhibition (IC50) in the assay on A549 cells was less than 5000 nM; with SW620 cells, less than 5000 nM; on K-Ras WT, less than 100 nM; on K-Ras G12D, less than 100 nM; at K-Ras G12V, less than 100 nM; at K-Ras G12S it was less than 100 nM. The IC50 with GP2D cells was less than 500 nM.
`C#Cc1c(F)ccc2cc(O)cc(-c3nc4c5c(nc(OC[C@@]67CCCN6C[C@H](F)C7)nc5c3F)N(C3CCOC3)CCN4)c12` (stereo partly drawn) [Compound 771, 5-ethynyl-6-fluoro-4-(4-fluoro-2-(((2R,7aS)-2-fluorotetrahydro-1H-pyrrolizin-7a(5H)-yl)methoxy)-10-(tetrahydrofuran-3-yl)-7,8,9,10-tetrahydro-1,3,6,7,10-pentaazacyclohepta[de]naphthalen-5-yl)naphthalen-2-ol]: the IC50 in the assay on A549 cells was less than 5000 nM; in the assay with SW620 cells, less than 5000 nM; on K-Ras WT it was less than 100 nM; on K-Ras G12D, less than 100 nM; on K-Ras G12V it was less than 100 nM; on K-Ras G12S, less than 100 nM. Moreover, in the assay on GP2D cells, the half-inhibitory concentration (IC50) was less than 500 nM.
On to `N#Cc1c(N)sc2c(F)ccc(-c3c(Cl)c4c5c(nc(OC[C@@]67CCCN6C[C@H](F)C7)nc5c3F)N(C3CCN(C(=O)C[C@@H]5CCCO5)C3)CCO4)c12` (stereo partly drawn) [Compound 777, 2-amino-4-(8-chloro-10-fluoro-2-(((2R,7aS)-2-fluorotetrahydro-1H-pyrrolizin-7a(5H)-yl)methoxy)-4-(1-(2-((S)-tetrahydrofuran-2-yl)acetyl)pyrrolidin-3-yl)-5,6-dihydro-4H-[1,4]oxazepino[5,6,7-de]quinazolin-9-yl)-7-fluorobenzo[b]thiophene-3-carbonitrile], for which the IC50 in the assay on A549 cells was less than 5000 nM; with SW620 cells, less than 5000 nM; on K-Ras WT it was less than 100 nM; on K-Ras G12D, less than 100 nM; on K-Ras G12V, less than 100 nM; at K-Ras G12S, less than 100 nM. Moreover, the IC50 in the assay with GP2D cells is less than 500 nM.
